The source of these data is article PMC5558795 (Antiviral research, 2017).

“Also recorded” adds a separate entry of the source.

The target of data set [1] is Furin (Homo sapiens, UniProt P09958). Put plainly: Fluorescent peptide. It counts as biochemical. Particulars: read-out: In vitro IC50, Furin; 20 nM enzyme, 20 μM Pyr-RTKR-AMC.
Data set [2] relates to Fetal human NPCs. Type of data set: cell-based.
The test system of data set [3] is ZIKV (Asian strain, FSS13025). Put plainly: ZIKV infection of human fetal neural progenitor cells. Type of data set: cell-based, Zika virus. Particulars: compound up to 100 μM; for Inhibition of ZIKV infection of hfNPCs (in words): MOI 0.1, 4 days; for Cytotoxicity in hfNPCs (in words): Fig. 7A.
Details of data set [4]: species or system mice. The following applies: mouse, in vivo, ip, 10 mg/kg.
Data set [5] concerns the target ZIKV NS2B-NS3pro (Zika virus, UniProt A0A024B7W1). Put plainly: Fluorescent peptide. Type of data set: biochemical. The following applies: read-out: IC50, ZIKV cleavage activity; Fig. 4A.

Sequence of Furin (P09958 108-794): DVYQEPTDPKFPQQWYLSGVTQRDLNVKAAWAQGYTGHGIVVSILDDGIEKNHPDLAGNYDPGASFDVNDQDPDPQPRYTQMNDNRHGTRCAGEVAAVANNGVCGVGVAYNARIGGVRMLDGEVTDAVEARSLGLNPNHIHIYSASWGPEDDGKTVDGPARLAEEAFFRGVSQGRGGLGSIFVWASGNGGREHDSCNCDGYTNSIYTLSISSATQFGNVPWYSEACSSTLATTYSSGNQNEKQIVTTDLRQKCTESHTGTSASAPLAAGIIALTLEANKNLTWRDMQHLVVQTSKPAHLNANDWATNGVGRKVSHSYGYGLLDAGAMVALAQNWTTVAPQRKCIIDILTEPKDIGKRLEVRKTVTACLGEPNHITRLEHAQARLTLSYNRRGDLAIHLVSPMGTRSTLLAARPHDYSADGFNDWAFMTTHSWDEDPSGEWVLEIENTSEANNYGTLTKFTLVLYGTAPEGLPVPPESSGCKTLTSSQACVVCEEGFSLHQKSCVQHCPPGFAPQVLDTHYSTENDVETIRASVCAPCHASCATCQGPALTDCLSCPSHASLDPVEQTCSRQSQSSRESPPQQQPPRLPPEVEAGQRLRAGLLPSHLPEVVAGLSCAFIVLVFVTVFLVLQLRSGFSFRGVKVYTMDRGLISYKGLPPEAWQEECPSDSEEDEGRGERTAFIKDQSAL

On to `Nc1cc(N)c(N=Nc2ccc(S(=O)(=O)Nc3nccs3)cc2)cc1N=Nc1ccc(S(=O)(=O)Nc2nccs2)cc1` [NSC86314], for which the concentration for half-maximal inhibition (IC50) (usually the concentration that gives 50% inhibition) in data set [1] was above 100 µM. Also, in data set [2], the “Cytotoxicity (TC50)” value turned out to be 212.5 µM. Also, in data set [3], the “Inhibition of ZIKV infection of hfNPCs (in words)” value was “little or no inhibition” and the “Cytotoxicity in hfNPCs (in words)” value is reported as “more cytotoxic”.
Regarding `CC(=O)C(N=Nc1ccc(S(=O)(=O)Nc2ccccn2)cc1)C(=O)Nc1ccc(Cl)cc1` (stereo not drawn) [NSC134189], the 50% inhibitory concentration (IC50) in data set [1] is above 100 µM. Also, the “Cytotoxicity (TC50)” value in data set [2] was determined as 132.3 µM.
Take `Clc1nc2n[nH]nc2nc1Cl` [NSC157058]: the IC50 in data set [1] is above 100 µM. Moreover, in data set [2], the “Cytotoxicity (TC50)” value stood at 257.4 µM. Besides, the “Cytotoxicity in hfNPCs (in words)” value in data set [3] is given as “without demonstrating significant cytotoxicity; also recorded: without significant cellular toxicity”. The Plasma half-life in data set [4] is reported as ~ 20 min.
On to `Clc1ccc(-c2nn3c(COc4cc(Cl)c(OCc5nnc6sc(-c7ccc(Cl)cc7)nn56)cc4Cl)nnc3s2)cc1` [NSC716897], for which, in data set [1], the half-maximal inhibitory concentration (IC50) is above 100 µM. The “Cytotoxicity (TC50)” value in data set [2] was determined as 178.4 µM.
As to `Clc1cc(OCc2nnc3sc(Cc4ccccc4)nn23)c(Cl)cc1OCc1nnc2sc(Cc3ccccc3)nn12` [NSC716898], in data set [1], the IC50 was above 100 µM. The “Cytotoxicity (TC50)” value in data set [2] turned out to be 235.8 µM.
For the molecule `Clc1ccc(-c2nn3c(COc4cccc(OCc5nnc6sc(-c7ccc(Cl)cc7)nn56)c4)nnc3s2)cc1` [NSC716903], the concentration for half-maximal inhibition (IC50) in data set [1] is above 100 µM. For the same molecule, the “Cytotoxicity (TC50)” value in data set [2] came to 127.8 µM. In data set [3], the “Inhibition of ZIKV infection of hfNPCs (in words)” value is “little or no inhibition” and the “Cytotoxicity in hfNPCs (in words)” value was “more cytotoxic”.
For the molecule `Fc1cc(C2=Nn3c(COc4ccc(Cl)cc4Cl)nnc3S/C2=C\c2ccc(-c3ccc(Cl)cc3)o2)c(Cl)cc1Cl` [NSC719147], the IC50 in data set [1] was above 100 µM. Further, the “Cytotoxicity (TC50)” value in data set [2] was determined as 160.3 µM.
For the molecule aprotinin, the IC50 in data set [5] is around 0.07 µM.
